The values below are quoted from earlier work in patent publication US20030018166A1 (priority 2000, published 2003).

In this data set the target is T1, M. avium ICL (UniProt P9WKK7).
T1 construct: The proteins were purified by the 6His-tag attached to the N terminus; fused on or other part: N-terminal 6His tag
T1 sequence (P9WKK7 1-428): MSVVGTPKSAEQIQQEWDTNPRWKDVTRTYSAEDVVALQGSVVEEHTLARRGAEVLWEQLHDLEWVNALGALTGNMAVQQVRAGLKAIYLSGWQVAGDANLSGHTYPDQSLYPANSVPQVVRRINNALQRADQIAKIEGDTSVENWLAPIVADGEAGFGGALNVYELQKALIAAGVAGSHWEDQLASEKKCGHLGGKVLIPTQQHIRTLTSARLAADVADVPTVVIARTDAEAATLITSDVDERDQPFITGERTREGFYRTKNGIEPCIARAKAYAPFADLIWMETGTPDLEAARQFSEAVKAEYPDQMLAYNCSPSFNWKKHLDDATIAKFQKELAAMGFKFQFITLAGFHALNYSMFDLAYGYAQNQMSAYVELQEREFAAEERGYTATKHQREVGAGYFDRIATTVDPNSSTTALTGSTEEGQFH
The conditions noted are these: Schloss and Cleland, 1982, cited from earlier work.

Where two headings read alike, the source gives them in different places.

What is called Ki is a dissociation constant, usually derived from enzyme kinetics or from competition with a known ligand. Take `O=C(O)C(=O)CBr` [bromopyruvate, 3-bromopyruvate]: the Ki is 120 µM.

For `O=C(O)CC[N+](=O)[O-]` [3-nitropropionate], under “read-out: Ki”, the Ki is 3 µM.
